Results published in ChEMBL document CHEMBL1201862, “PubChem BioAssay data set” (2004).
Active and inactive are the calls of the source.

Assays:
[1] = target: Peroxisome proliferator-activated receptor gamma/Nuclear receptor coactivator 2 (Homo sapiens, UniProt P37231); assay: TR-FRET dose response biochemical High Throughput Screening assay for agonists of the steroid receptor coactivator 2 (SRC-2) recruitment by the peroxisome proliferator-activated receptor gamma (PPAR gamma): non-selective agonists. [Related pubchem assays: 1297, 1032 ]; format: functional
Peroxisome proliferator-activated receptor gamma/Nuclear receptor coactivator 2, sequence (P37231 whole entry): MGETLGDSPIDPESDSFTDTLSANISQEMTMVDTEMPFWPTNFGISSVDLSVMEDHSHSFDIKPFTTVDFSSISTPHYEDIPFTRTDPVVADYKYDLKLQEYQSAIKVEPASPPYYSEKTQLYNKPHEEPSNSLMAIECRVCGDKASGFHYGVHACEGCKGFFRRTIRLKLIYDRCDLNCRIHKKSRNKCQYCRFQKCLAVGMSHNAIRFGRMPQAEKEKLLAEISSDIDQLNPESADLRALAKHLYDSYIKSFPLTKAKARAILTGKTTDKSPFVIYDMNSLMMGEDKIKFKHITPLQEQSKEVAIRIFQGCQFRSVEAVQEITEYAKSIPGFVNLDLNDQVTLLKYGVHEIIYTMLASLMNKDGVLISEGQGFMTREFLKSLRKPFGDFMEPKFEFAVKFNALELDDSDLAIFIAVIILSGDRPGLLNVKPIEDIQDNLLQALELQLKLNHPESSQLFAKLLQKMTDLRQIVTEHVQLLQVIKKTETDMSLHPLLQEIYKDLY
Peroxisome proliferator-activated receptor gamma/Nuclear receptor coactivator 2, sequence (Q15596 whole entry, further chain): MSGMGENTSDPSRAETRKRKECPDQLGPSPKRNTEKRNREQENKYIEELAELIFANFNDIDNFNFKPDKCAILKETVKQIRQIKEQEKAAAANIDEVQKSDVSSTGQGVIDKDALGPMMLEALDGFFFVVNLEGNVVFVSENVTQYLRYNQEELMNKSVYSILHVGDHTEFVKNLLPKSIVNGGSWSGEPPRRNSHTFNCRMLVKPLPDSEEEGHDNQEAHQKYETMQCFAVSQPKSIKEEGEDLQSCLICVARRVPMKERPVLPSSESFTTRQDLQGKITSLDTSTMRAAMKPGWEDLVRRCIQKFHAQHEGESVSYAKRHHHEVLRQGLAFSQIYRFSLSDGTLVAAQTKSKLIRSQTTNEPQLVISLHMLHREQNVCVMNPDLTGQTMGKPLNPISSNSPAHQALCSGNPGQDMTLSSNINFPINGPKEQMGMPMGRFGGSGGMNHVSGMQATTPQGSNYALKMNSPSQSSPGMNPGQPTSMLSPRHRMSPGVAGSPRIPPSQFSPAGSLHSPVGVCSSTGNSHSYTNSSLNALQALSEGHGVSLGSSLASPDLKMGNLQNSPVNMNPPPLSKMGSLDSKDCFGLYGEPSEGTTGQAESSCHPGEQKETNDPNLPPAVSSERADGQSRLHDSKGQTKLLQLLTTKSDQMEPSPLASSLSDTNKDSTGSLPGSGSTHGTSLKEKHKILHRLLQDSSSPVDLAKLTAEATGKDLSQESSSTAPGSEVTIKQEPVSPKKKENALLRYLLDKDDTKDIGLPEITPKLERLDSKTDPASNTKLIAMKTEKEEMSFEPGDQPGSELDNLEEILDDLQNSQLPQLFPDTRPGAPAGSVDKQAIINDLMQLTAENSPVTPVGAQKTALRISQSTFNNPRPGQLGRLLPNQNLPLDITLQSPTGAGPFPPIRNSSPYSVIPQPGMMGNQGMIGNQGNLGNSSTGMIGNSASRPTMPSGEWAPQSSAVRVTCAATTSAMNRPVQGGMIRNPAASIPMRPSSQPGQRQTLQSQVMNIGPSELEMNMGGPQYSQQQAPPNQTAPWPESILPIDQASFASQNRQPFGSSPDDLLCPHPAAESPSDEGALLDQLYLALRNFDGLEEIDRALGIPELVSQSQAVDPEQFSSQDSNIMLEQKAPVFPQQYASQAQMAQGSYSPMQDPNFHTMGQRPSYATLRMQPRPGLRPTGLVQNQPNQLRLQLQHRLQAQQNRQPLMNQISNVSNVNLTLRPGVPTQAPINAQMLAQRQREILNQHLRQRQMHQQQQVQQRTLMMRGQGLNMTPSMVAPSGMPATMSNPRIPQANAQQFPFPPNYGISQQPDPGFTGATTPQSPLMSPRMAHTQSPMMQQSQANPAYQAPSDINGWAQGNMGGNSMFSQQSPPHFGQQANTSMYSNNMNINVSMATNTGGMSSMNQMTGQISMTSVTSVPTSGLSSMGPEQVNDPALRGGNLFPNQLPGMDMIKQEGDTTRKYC

[2] = target: Peroxisome proliferator-activated receptor gamma/Nuclear receptor coactivator 1 (Homo sapiens, UniProt P37231); assay: TR-FRET dose response biochemical High Throughput Screening assay for agonists of the steroid receptor coactivator 1 (SRC-1) recruitment by the peroxisome proliferator-activated receptor gamma (PPAR gamma): non-selective agonists. [Related pubchem assays (depositor defined):AID1300, AID1808, AID504735, AID631]; format: protein assay
[3] = target: Peroxisome proliferator-activated receptor gamma/Nuclear receptor coactivator 3 (Homo sapiens, UniProt P37231); assay: TR-FRET dose response biochemical High Throughput Screening assay for agonists of the steroid receptor coactivator 3 (SRC-3) recruitment by the peroxisome proliferator-activated receptor gamma (PPAR gamma): non-selective agonists. [Related pubchem assays: 1301 (Confirmation screen.), 1048 (Primary screen.)]; format: functional
Peroxisome proliferator-activated receptor gamma/Nuclear receptor coactivator 3, sequence (P37231 whole entry): as the sequence (P37231 whole entry) above
Peroxisome proliferator-activated receptor gamma/Nuclear receptor coactivator 3, sequence (Q9Y6Q9 whole entry, further chain): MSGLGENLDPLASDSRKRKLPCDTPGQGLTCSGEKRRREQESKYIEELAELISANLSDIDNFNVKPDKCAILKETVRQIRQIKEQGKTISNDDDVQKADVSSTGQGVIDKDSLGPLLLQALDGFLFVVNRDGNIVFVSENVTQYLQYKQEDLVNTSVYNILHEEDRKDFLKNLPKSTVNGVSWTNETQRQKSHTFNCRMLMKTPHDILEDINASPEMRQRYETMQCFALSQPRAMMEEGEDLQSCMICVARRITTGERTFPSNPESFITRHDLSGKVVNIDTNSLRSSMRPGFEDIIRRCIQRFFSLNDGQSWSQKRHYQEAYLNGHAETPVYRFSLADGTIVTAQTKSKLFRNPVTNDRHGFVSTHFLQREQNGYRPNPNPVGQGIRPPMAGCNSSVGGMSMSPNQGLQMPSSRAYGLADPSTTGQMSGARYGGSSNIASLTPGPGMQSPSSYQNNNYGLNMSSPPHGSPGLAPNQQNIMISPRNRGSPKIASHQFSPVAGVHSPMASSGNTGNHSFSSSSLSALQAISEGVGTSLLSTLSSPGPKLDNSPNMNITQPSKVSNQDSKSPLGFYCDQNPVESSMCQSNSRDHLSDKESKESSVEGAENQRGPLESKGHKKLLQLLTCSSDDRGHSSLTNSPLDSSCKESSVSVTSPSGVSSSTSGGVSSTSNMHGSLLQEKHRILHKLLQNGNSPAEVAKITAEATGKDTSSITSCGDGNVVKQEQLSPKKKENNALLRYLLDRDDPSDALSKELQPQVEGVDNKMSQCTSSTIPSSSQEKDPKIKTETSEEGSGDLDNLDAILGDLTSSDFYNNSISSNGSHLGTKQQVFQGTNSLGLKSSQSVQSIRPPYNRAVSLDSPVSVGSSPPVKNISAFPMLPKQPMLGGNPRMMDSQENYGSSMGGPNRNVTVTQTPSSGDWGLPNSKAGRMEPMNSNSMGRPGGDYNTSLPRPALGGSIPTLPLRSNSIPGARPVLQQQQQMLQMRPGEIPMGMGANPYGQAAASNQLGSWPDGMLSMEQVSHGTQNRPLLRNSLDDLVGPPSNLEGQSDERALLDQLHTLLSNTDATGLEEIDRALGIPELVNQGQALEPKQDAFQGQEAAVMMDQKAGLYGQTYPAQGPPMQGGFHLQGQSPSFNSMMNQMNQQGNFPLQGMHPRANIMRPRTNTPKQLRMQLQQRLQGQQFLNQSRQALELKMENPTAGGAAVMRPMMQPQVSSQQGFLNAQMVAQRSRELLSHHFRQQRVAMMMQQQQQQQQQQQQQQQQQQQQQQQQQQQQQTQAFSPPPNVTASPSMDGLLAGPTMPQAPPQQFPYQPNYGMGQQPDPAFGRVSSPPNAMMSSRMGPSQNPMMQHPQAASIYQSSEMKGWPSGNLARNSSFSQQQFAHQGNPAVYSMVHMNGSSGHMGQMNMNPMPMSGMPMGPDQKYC

[4] = tested on: Streptococcus sp. 'group A'; assay: Streptococcus pyogenes SK(-)GAS viability under kanamycin – luminescence, BacTiterGlo, confirmation, counter-screen for streptokinase expression inhibitor project, dose response (AID 1900); format: functional, organism-based
[5] = NIH3T3 cell viability loss – ATP luminescence, mouse fibroblasts, counter-screen, dose response (AID 2010); format: functional, cell-based;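 further: cells exposed to compound for about 90 hours before reading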
[6] = viability of PTEN-deleted HCT116 cells – cell-based, HCT116 PTEN knockout, dose response (AID 1047); format: functional;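 further: HCT116 colon tumor cells with PTEN knocked out; cells exposed to compound for 60 hours before readout; potency for loss of cell viability measured by luminescence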
[7] = target: T1, DNA repair protein RAD52 homolog (Homo sapiens, UniProt P43351); format: functional, biochemical
T1 sequence (P43351 whole entry): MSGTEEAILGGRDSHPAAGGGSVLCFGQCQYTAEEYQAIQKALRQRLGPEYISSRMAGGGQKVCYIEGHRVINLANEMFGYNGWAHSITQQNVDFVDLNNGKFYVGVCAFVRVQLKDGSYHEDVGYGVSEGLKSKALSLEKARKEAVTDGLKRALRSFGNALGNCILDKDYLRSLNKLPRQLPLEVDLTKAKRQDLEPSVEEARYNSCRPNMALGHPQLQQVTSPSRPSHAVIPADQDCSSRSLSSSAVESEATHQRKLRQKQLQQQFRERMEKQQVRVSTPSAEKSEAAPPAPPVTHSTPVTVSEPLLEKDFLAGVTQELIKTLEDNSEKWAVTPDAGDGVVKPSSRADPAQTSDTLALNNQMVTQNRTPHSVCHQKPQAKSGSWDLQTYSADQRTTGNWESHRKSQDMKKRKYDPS

[8] = target: Phospholipase A2 (Homo sapiens, UniProt P04054); format: functional;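 further: confirmatory dose-response counterscreen on phospholipase A2, testing hits that came from an ultra-high-throughput screen for ATG4B inhibitors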
Phospholipase A2, sequence (P04054 whole entry): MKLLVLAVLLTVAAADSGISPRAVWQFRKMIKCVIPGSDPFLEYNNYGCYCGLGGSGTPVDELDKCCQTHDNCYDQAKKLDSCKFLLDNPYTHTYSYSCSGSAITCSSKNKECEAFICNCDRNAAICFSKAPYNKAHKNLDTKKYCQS

[9] = tested on: Streptococcus; assay: GAS UMAA2166 growth inhibition – luminescence, BacTiterGlo, counter-screen for streptokinase expression inhibitor project, dose response (AID 1915); format: functional, organism-based;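 further: potency for reduction of bacterial viability or growth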
[10] = NIH-3T3 fibroblast cytotoxicity, dose response, cytotoxicity control, cell-based, fluorescence, Alamar Blue, secondary assay (AID 2327); format: functional;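 further: NIH-3T3 mouse fibroblasts cultured with fluconazole at 8 µg/mL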
[11] = tested on: Vero; assay: cells; format: functional; settings: Chlorocebus sabaeus
[12] = Trypanosoma cruzi growth suppression in host cells – NIH3T3 host cells, beta-gal luminescence, confirmation (AID 2044); format: functional, cell-based;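 further: intracellular parasites grown in NIH/3T3 mouse fibroblasts as host cells; luminescent beta-galactosidase reporter signal from transgenic T. cruzi replicating inside host cells; inhibitors lower the luminescence signal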
[13] = target: T2, Cysteine protease ATG4B (Homo sapiens, UniProt Q9Y4P1); format: functional;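 further: Fluorescence-based dose-response confirmation assay measuring inhibition of ATG4B activity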
T2 sequence (Q9Y4P1 whole entry): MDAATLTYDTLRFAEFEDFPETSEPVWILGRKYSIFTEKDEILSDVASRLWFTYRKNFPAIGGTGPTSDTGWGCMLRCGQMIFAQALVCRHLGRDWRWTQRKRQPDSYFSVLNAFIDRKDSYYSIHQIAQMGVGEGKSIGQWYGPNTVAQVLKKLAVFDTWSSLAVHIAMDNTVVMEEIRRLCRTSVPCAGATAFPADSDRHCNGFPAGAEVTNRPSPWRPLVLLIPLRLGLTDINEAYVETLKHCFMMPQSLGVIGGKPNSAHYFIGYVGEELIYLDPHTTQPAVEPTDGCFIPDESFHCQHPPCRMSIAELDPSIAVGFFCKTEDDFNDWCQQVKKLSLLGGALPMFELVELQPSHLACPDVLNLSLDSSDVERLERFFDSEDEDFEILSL

[14] = fluconazole-exposed Candida albicans growth modulators – fluorescence, retest, confirmation (AID 2467); format: functional, cell-based
[15] = target: T3, Streptokinase A (Streptococcus pyogenes serotype M1, UniProt P10520); assay: viability-normalized secreted streptokinase activity reduction – plasminogen activation absorbance, OD405, dose response (AID 1914); format: functional, Streptococcus pyogenes M1 GAS;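 further: secreted streptokinase activity via plasminogen activation per viability signal from cell pellet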
T3 sequence (P10520 whole entry): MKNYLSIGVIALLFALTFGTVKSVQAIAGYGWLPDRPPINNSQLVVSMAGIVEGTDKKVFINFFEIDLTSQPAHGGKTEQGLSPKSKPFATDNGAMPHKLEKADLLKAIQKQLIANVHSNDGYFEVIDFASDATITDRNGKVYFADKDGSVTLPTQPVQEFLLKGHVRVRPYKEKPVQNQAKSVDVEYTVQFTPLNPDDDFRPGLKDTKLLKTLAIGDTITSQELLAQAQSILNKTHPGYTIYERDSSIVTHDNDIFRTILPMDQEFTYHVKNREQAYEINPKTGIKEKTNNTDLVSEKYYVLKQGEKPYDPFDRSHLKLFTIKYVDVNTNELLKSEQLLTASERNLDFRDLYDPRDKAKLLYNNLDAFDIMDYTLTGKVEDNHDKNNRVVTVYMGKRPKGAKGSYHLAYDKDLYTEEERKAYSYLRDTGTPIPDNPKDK

[16] = viability of HCT116 lacking mutant beta-catenin – cell-based, human colon tumor, dose response (AID 1045); format: functional;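 further: HCT116 colon tumor cells with beta catenin knocked out; cells exposed to compound for 60 hours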
[17] = target: T4, Coagulation factor XII (Homo sapiens, UniProt P00748); format: functional;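 further: activated factor XIIa alpha cleaving a fluorogenic AMC peptide substrate; inhibitor potency from loss of enzyme activity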
T4 sequence (P00748 whole entry): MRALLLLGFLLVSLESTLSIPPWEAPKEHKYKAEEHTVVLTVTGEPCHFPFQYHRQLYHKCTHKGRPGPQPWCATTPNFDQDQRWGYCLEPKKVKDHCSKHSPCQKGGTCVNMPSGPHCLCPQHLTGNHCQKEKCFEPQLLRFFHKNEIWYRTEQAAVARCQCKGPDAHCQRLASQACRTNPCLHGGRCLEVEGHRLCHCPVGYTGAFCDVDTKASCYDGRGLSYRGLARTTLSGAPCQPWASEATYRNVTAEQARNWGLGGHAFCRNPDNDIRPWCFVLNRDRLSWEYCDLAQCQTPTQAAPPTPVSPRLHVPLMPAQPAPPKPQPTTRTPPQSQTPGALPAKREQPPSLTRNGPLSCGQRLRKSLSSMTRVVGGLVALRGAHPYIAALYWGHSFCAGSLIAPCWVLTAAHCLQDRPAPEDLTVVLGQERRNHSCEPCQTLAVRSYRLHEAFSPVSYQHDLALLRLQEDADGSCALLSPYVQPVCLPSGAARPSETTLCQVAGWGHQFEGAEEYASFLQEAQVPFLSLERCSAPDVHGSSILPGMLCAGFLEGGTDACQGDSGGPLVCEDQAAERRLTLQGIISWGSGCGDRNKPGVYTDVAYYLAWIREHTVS

[18] = tested on: HEK293; assay: cells; format: functional, cell-based; settings: Homo sapiens
[19] = target: Nucleotide-binding oligomerization domain-containing protein 2 (Homo sapiens, UniProt Q9HC29); assay: inhibition of NOD2-driven NF-kB reporter – cell-based, luminescence, uHTS, HEK293 (AID 1566); format: functional
Nucleotide-binding oligomerization domain-containing protein 2, sequence (Q9HC29 whole entry, the tested form may be a part): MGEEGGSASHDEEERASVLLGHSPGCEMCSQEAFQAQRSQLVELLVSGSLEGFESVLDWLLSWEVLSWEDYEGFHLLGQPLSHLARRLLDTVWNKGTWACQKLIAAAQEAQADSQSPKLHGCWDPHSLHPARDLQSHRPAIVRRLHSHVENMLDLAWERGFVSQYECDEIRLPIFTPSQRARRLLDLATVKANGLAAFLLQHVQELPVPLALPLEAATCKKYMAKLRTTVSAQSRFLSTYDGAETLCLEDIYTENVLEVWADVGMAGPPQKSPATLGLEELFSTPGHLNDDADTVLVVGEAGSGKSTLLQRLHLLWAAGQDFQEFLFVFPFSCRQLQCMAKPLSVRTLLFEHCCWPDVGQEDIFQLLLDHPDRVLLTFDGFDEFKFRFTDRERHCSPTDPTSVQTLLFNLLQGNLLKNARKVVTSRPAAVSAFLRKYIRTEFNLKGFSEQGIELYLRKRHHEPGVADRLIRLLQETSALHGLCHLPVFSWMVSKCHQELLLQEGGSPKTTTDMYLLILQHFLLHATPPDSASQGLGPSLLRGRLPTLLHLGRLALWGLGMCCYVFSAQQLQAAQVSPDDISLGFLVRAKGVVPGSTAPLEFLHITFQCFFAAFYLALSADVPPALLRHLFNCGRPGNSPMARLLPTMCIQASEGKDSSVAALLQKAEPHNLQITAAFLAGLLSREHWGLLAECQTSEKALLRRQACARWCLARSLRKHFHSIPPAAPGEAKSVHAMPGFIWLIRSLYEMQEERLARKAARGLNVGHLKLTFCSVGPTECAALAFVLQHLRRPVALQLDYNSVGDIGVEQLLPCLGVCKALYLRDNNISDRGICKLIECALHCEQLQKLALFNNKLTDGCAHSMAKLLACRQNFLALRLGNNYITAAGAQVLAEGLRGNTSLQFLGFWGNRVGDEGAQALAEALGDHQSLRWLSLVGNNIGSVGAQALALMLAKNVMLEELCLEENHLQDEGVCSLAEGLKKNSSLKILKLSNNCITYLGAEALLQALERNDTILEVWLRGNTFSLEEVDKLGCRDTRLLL

[20] = tested on: HEK293; assay: cells; format: functional, cell-based; settings: Homo sapiens; remark: listed apart in the source
[21] = tested on: HEK293; assay: NOD2 signaling inhibitors in MDP-stimulated cells, cell-based, uHTS, luminescence (AID 2001); format: functional; settings: Homo sapiens
[22] = tested on: HEK293; assay: cells; format: functional, cell-based; settings: Homo sapiens; remark: listed apart in the source
[23] = tested on: HEK293; assay: inhibition of NOD1-driven NF-kB reporter – cell-based, luminescence, uHTS, primary screen (AID 1578); format: functional; settings: Homo sapiens
[24] = target: Cytochrome P450 2D6 (Homo sapiens, UniProt P10635);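 further: CYP2D6 member of a cytochrome P450 panel assay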
[25] = target: T5, Cytochrome P450 1A2 (Homo sapiens, UniProt P05177);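 further: PubChem cytochrome P450 panel assay, CYP1A2 panel member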
T5 sequence (P05177 whole entry): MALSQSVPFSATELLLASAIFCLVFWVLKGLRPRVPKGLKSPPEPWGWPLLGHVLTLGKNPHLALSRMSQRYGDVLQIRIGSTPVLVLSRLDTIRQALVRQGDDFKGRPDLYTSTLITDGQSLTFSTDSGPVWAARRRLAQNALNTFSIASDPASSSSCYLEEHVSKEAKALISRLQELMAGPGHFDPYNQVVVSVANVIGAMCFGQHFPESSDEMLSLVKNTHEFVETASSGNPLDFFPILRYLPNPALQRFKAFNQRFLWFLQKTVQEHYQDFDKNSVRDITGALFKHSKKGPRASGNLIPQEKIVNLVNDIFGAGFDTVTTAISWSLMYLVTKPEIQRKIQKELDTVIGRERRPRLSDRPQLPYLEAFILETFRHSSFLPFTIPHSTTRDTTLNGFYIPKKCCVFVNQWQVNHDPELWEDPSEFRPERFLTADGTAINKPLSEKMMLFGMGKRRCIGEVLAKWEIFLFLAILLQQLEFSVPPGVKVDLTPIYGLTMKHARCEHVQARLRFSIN

[26] = target: Cytochrome P450 2C9 (Homo sapiens, UniProt P11712)
[27] = target: T6, Zinc finger protein mex-5 (Caenorhabditis elegans, UniProt Q9XUB2); assay: potency of MEX-5 RNA-binding blockers – biochemical, C. elegans, fluorescence polarization, dose response (AID 1960)
T6 sequence (Q9XUB2 whole entry): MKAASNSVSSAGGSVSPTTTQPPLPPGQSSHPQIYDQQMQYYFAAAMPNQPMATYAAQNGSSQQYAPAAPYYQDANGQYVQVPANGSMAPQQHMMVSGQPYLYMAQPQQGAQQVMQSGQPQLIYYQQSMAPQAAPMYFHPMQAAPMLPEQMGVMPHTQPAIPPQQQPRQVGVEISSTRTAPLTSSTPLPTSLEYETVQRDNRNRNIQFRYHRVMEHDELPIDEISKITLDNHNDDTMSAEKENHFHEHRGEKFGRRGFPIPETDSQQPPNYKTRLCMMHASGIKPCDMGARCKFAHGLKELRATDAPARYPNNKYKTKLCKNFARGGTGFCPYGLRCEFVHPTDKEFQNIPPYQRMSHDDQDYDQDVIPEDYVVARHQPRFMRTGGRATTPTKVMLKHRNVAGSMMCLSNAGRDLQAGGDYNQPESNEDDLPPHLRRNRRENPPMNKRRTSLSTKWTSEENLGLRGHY

[28] = target: T7, RNA-binding protein pos-1 (Caenorhabditis elegans, UniProt G5EF15); assay: disruptors of C. elegans POS-1 RNA interaction – biochemical, fluorescence polarization, dose response (AID 1964);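 further: purified POS-1 fused to maltose binding protein made in E. coli; potency of compounds blocking POS-1 binding to fluorescent RNA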
T7 sequence (G5EF15 whole entry): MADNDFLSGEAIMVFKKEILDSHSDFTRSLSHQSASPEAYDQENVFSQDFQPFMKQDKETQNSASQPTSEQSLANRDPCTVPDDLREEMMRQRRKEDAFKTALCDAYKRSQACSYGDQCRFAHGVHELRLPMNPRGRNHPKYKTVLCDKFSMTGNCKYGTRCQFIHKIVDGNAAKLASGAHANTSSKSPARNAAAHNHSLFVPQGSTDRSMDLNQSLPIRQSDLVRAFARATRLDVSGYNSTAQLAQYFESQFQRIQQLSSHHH

## CCn1c(=O)cc(SCC(=O)Nc2cccc(SC)c2)c2ccccc21
[1]
  EC50: > 26.5 µM (not active)
[2]
  EC50: 69.8 µM (inactive)
[3]
  EC50: > 79.4 µM (not active)

## CCCCCCCOC(=O)C[N+](C)(C)CCOC1CC2CCC1(C)C2(C)C (centres undefined)
[4]
  EC50: 3.84 µM (active)
[5]
  EC50: > 60 µM (not active)
[6]
  EC50: 15.8 µM (active)
[7]
  AC50: 29.2 µM (active)
[8]
  IC50: 10.3 µM (active)
[9]
  EC50: 9.21 µM (active)
[10]
  EC50: > 150 µM (inactive)
[11]
  CC50: > 25 µM (active)
[12]
  EC50: 0.224 µM (active)
[13]
  IC50: 7.62 µM (active)
[14]
  EC50: 0.997 µM (active)
[15]
  EC50: 5.77 µM (active)
[16]
  EC50: 20.2 µM (active)

## Cc1cc(Nc2ccc(C)c(C)c2)n2nc(C)nc2n1
[17]
  IC50: > 50 µM (inactive)

## COc1cccc(NC(=O)Nc2ccccc2SC)c1
[17]
  IC50: > 50 µM (inactive)

## COc1ccc(-c2cc(=O)oc3cc(O)ccc23)cc1
[18]
  IC50: > 20 µM (inactive)
[19]
  EC50: 5.73 µM (active)
[20]
  IC50: 2.45 µM (active)
[21]
  IC50: 3.06 µM (active)
[22]
  IC50: > 20 µM (inactive)
[23]
  EC50: 5.67 µM (active)

## COc1cccc(Nc2nc(-c3sc(NC(=O)c4ccccc4)nc3C)cs2)c1
[1]
  EC50: 27.9 µM (not active)
[2]
  EC50: 14.8 µM (inactive)
[3]
  EC50: > 79.4 µM (not active)

## Cc1ccc2cccc(/N=C/c3c(C)[nH]n(-c4ccccc4)c3=O)c2n1
[18]
  IC50: > 20 µM (inactive)
[19]
  EC50: > 20 µM (inactive)
[20]
  IC50: > 20 µM (inactive)
[21]
  IC50: 7.67 µM (active)
[22]
  IC50: > 20 µM (inactive)
[23]
  EC50: 4.72 µM (active)

## Cc1onc(-c2ccccc2)c1CNC(=O)Nc1cccc(Cl)c1
[8]
  IC50: 8.35 µM (active)
[13]
  IC50: 15 µM (active)

## Nn1c(C2CCCCC2)nc2ccccc2c1=O
[17]
  IC50: > 50 µM (inactive)

## Oc1nc(-c2ccccc2)cc(C(F)(F)F)n1
[24]
  AC50: inconclusive
[25]
  AC50: 11.2 µM (inconclusive)
[26]
  AC50: 6.31 µM (inconclusive)

## Cc1nnc(N2C(=O)C(O)=C(C(=O)c3ccco3)C2c2ccc(F)cc2)s1 (centres undefined)
[27]
  EC50: 32.9 µM (active)
[1]
  EC50: 27 µM (not active)
[2]
  EC50: > 79.4 µM (inactive)
[3]
  EC50: > 79.4 µM (not active)
[28]
  EC50: 34.2 µM (active)
